In data set [1] the test system is MDR1 (human MDR1 or rat MDR1a). The data set is described as follows: Apparent permeability of the compound in pig LLC-PK1 cells expressing human MDR1 or rat MDR1a. The data set is classed as ADME, cell-based, Sus scrofa.
Data set [2] is described as follows: Clearance in dog plasma. The data set is classed as ADME, cell-free, Canis lupus familiaris.
The nature of data set [3]: Volume of distribution in rat. The data set is classed as ADME. The conditions noted are these: in vivo.
Data set [4] can be described thus: Half life in dog. The data set is classed as ADME, Canis lupus familiaris. The conditions noted are these: in vivo.
A short description of data set [5]: Half life in rat liver microsomes. The data set is classed as ADME. A general note: Liver microsomes are a subcellular fraction often used to study metabolism.
Data set [6] is described as follows: Volume of distribution in dog. The data set is classed as ADME, Canis lupus familiaris. The conditions noted are these: in vivo.
Data set [7] in a line: Lipophilicity, logD of the compound. The data set is classed as physicochemical. The note with it: octanol/water.
Data set [8] in a line: Half life in rat. The data set is classed as ADME. The conditions noted are these: in vivo.
Data set [9] can be described thus: Clearance in rat plasma. The data set is classed as ADME, cell-free.
Data set [10] is described as follows: Half life in human liver microsomes. The data set is classed as ADME.

In general, Papp refers to the rate of passage across a membrane or cell layer, normalised by area and donor concentration. By clearance is commonly meant the rate of elimination divided by the concentration. As a reminder, the Vd is the apparent volume that relates the amount in the body to the concentration in plasma or blood. Broadly, the half-life is the time in which the quantity being followed falls by half. Broadly, the logD is the decadic logarithm of the distribution of all forms, ionised or not, between an organic phase and buffer at a given pH. Low values mean lower lipophilicity, high ones higher lipophilicity.

`CC1(C)C(=O)N(C2CCCCC2)c2nc(Nc3ccccc3)ncc21`: the apparent permeability coefficient (Papp) in data set [1] amounted to 12 ×10⁻⁶ cm/s.
As to `CC1(C)C(=O)N([C@H]2CCc3c(O)cccc32)c2nc(Nc3ccccc3)ncc21`, the clearance turned out to be 68 mL/min/kg in data set [2] and 341 mL/min/kg in data set [9]. For the same compound, the volume of distribution (Vd) stood at 16.2 L/kg in data set [3] and 4 L/kg in data set [6]. Besides, the half-life in data set [4] was 48 min; in data set [5], 9 min; in data set [8], 48 min; in data set [10], 10 min. For the same compound, the pH-dependent lipophilicity (logD) in data set [7] was determined as 2.92.

(Values after ChEMBL document CHEMBL3875183, “Structure guided design of a series of selective pyrrolopyrimidinone MARK inhibitors” (Bioorg Med Chem Lett, 2017).)
